Measurements: patent US10690657B2, “Epithelial tissue model” (Nederlandse Organisatie voor …, priority 2012, dated 2020)

Key:
porcine jejunal tissue [1] = assay: Transport (apical to basolateral) across porcine jejunal tissue, Papp; details: animal of 12 kg body weight in comparison to an animal of 17 or 20 kg (FIG. 10)
Text: (§1) After anesthesia of the animal and resection of intestinal tissue, the tissue was directly added to ice-cold carbonated (5% CO2 and 95% O2) KRB buffer, pH 7.4, further referred to as KRB buffer. • 2. Intestinal tissue was transported to the test site in ice-cold KRB buffer • 3. At the test site, the intestinal tissue was cut open, rinsed with ice-cold KRB buffer when needed, placed on a petridish, submerged in ice-cold KRB buffer and muscle layers were stripped of. • 4. Intestinal segments with a diameter of 20 mm were punched, added to ice-cold KRB buffer, and kept on ice. • 5. After collecting all the segments needed for the incubation, the system was assembled (including to a total of 24 segments per system) and placed on ice. […] Subsequently, samples were taken from the apical and basolateral compartments for further analysis either using liquid scintillation counting (LSC), UV-Absorbance, Fluorescence, High Pressure Liquid Chromatography (HPLC), Liquid chromatography-Mass Spectrometry (LCMS), Liquid chromatography-Tandem Mass Spectrometry (LC-MSMS), Enzyme-Linked Immunosorbent Assay (ELISA), or Radio-Immuno Assay (RIA). • 11. […]
(§2) The apparent permeability value (Papp) is calculated using the following equation: Papp=(dQ/dt)/(A*C0), where dQ/dt refers to the permeability rate (mol/s), A is the surface area filter insert (cm2) and C0 is the initial concentration (mol/L). […]

porcine jejunal tissue [2] = test system: porcine jejunal tissue
Text: as §1, §2

porcine ileal tissue = assay: Translocation across porcine ileal tissue; assay type: in vitro ADME; details: between 0 and 60 minutes (FIG. 11)
Procedure: Translocation of the bacterial endotoxin lipopoly-saccharide (LPS) across the porcine ileal tissue during incubation time.

## Cn1c(N)nc2ncc(-c3ccccc3)cc21 [[14C]-PhIP, 2-amino-1-methyl-6-phenylimidazo[4,5-b]pyridine]
Porcine jejunal tissue [1]
  Transport across porcine jejunal tissue from animals with a different age: higher transport

## Cn1c(=O)c2c(ncn2C)n(C)c1=O [caffeine]
Porcine jejunal tissue [2]
  Apparent permeability (Papp) over time: constant Papp value over time

## lipopolysaccharide [LPS]
Porcine ileal tissue
  Lag time of transport across porcine ileal tissue: clear lag time of transport
